From patent US10538498B2, “1,3,4-oxadiazole sulfonamide derivative compounds as histone deacetylase 6 inhibitor, and the pharmaceutical composition comprising the same” (Chong Kun Dang Pharmaceutical Corp., priority 2015, dated 2020)

Target: T1, human recombinant HDAC6 (Homo sapiens, UniProt Q9UBN7)
T1 construct: purchased Calbiochem 382180
T1 sequence (Q9UBN7 1-1215): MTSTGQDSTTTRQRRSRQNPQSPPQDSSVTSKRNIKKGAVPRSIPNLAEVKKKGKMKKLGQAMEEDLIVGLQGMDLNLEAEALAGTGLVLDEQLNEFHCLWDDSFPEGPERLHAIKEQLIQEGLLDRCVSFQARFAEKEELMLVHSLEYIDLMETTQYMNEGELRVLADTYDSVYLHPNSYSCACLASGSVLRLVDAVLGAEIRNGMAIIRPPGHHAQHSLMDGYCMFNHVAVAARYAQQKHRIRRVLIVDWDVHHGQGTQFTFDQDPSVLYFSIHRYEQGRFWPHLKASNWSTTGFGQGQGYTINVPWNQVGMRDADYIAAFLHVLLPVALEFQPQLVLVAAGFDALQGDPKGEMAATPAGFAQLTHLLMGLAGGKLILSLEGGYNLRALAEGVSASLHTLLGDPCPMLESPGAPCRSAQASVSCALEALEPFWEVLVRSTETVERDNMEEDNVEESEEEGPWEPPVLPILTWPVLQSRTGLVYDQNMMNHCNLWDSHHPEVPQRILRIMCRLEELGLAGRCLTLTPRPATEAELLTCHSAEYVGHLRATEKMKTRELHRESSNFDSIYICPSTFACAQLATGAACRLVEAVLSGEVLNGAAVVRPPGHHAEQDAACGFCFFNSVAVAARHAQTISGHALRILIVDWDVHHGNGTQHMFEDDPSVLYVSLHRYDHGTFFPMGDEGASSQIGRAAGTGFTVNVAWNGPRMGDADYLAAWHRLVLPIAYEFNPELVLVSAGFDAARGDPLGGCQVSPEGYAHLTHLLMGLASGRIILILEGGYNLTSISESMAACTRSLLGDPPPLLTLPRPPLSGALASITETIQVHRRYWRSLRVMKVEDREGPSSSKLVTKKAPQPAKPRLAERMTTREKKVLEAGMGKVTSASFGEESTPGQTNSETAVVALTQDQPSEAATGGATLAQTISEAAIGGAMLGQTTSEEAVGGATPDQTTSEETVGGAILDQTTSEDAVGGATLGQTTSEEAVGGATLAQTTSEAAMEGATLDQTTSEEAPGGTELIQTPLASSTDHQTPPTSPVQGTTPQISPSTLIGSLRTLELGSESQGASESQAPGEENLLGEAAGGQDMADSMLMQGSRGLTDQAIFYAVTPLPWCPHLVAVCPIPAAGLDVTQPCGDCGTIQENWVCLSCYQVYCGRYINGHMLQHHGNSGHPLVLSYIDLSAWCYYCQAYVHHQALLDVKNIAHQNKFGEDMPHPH
Assay: HDAC6 enzyme activity inhibition assay (HDAC Fluorimetric Drug Discovery Kit)
Type: biochemical
Conditions: for HDAC6 selectivity (fold): HDAC1 vs HDAC6; for IC50: same protocol as the HDAC1 enzyme activity test
Summary of the method: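 Recombinant enzyme (0.3 μg) was incubated with 5-fold serially diluted compound and 10 μM Fluor de Lys-SIRT1 substrate for 60 min at 30° C. Developer II was then added for 30 min, fluorescence read at Ex 360/Em 460, and IC50 values were calculated.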

Compound	HDAC6 selectivity (fold)	IC50
O=C(C1CC1)N1CC(N2CCC(S(=O)(=O)N(Cc3ccc(-c4nnc(C(F)F)o4)cn3)c3cccc(Cl)c3)CC2)C1 [Compound 11784, N-(3-chlorophenyl)-1-(1-(cyclopropanecarbonyl)azetidin-3-yl)-N-((5-(5-(difluoromethyl)-1,3,4-oxadiazol-2-yl)pyridin-2-yl)methyl)piperidine-4-sulfonamide]	3154 fold	31.7 nM
CN1CC(N2CCC(S(=O)(=O)N(Cc3ccc(-c4nnc(C(F)F)o4)cc3)c3cccc(Cl)c3)CC2)C1 [Compound 11785, N-(3-chlorophenyl)-N-(4-(5-(difluoromethyl)-1,3,4-oxadiazol-2-yl)benzyl)-1-(1-methylazetidin-3-yl)piperidine-4-sulfonamide]	2092 fold	47.8 nM
O=S(=O)(CCN1CCC(F)CC1)N(Cc1ccc(-c2nnc(C(F)F)o2)cn1)c1ccc(F)c(Cl)c1 [Compound 11786, N-(3-chloro-4-fluorophenyl)-N-((5-(5-(difluoromethyl)-1,3,4-oxadiazol-2-yl)pyridin-2-yl)methyl)-2-(4-fluoropiperidin-1-yl)ethane-1-sulfonamide]	1828 fold	54.7 nM
COCC(C)N1CCC(S(=O)(=O)N(Cc2ccc(-c3nnc(C(F)F)o3)cn2)c2ccccc2)CC1 (centres unmarked) [Compound 11790, N-((5-(5-(difluoromethyl)-1,3,4-oxadiazol-2-yl)pyridin-2-yl)methyl)-1-(1-methoxypropan-2-yl)-N-phenylpiperidine-4-sulfonamide]	2227 fold	44.6 nM
O=S(=O)(C1CCN(C2CC(O)C2)CC1)N(Cc1ccc(-c2nnc(C(F)F)o2)cn1)c1ccccc1 (centres unmarked) [Compound 11791, N-((5-(5-(difluoromethyl)-1,3,4-oxadiazol-2-yl)pyridin-2-yl)methyl)-1-(3-hydroxycyclobutyl)-N-phenylpiperidine-4-sulfonamide]	2114 fold	47.3 nM
Cc1cccc(N(Cc2ccc(-c3nnc(C(F)F)o3)cc2)S(=O)(=O)C2CCN(C3CC(O)C3)CC2)c1 (centres unmarked) [Compound 11792, N-(4-(5-(difluoromethyl)-1,3,4-oxadiazol-2-yl)benzyl)-1-(3-hydroxycyclobutyl)-N-(m-tolyl)piperidine-4-sulfonamide]	1218 fold	82.1 nM
O=S(=O)(C1CCN(C2CC(O)C2)CC1)N(Cc1ccc(-c2nnc(C(F)F)o2)cc1)c1cccc(Cl)c1 (centres unmarked) [Compound 11793, N-(3-chlorophenyl)-N-(4-(5-(difluoromethyl)-1,3,4-oxadiazol-2-yl)benzyl)-1-(3-hydroxycyclobutyl)piperidine-4-sulfonamide]	1718 fold	58.2 nM
O=S(=O)(C1CCN(C2CCC2)CC1)N(Cc1ccc(-c2nnc(C(F)F)o2)cn1)c1ccccc1 [Compound 11794, 1-cyclobutyl-N-((5-(5-(difluoromethyl)-1,3,4-oxadiazol-2-yl)pyridin-2-yl)methyl)-N-phenylpiperidine-4-sulfonamide]	2192 fold	45.6 nM
O=S(=O)(CCN1CC[C@H](F)C1)N(Cc1ccc(-c2nnc(C(F)F)o2)cc1)c1ccccc1 [Compound 11795, (S)—N-(4-(5-(difluoromethyl)-1,3,4-oxadiazol-2-yl)benzyl)-2-(3-fluoropyrrolidin-1-yl)-N-phenylethane-1-sulfonamide]	1466 fold	68.2 nM
O=S(=O)(CCN(Cc1ccccc1)Cc1ccccc1)N(Cc1ccc(-c2nnc(C(F)F)o2)cc1)c1ccccc1 [Compound 11796, 2-(dibenzylamino)-N-(4-(5-(difluoromethyl)-1,3,4-oxadiazol-2-yl)benzyl)-N-phenylethane-1-sulfonamide]	56 fold	1780 nM
CN(C)CCS(=O)(=O)N(Cc1ccc(-c2nnc(C(F)F)o2)cc1)c1ccccc1 [Compound 11797, N-(4-(5-(difluoromethyl)-1,3,4-oxadiazol-2-yl)benzyl)-2-(dimethylamino)-N-phenylethane-1-sulfonamide]	821 fold	122 nM
CCN(CC)CCS(=O)(=O)N(Cc1ccc(-c2nnc(C(F)F)o2)cc1)c1ccccc1 [Compound 11798, 2-(diethylamino)-N-(4-(5-(difluoromethyl)-1,3,4-oxadiazol-2-yl)benzyl)-N-phenylethane-1-sulfonamide]	538 fold	186 nM
O=S(=O)(CCN1CC(O)C1)N(Cc1ccc(-c2nnc(C(F)F)o2)cc1)c1ccccc1 [Compound 11799, N-(4-(5-(difluoromethyl)-1,3,4-oxadiazol-2-yl)benzyl)-2-(3-hydroxyazetidine-1-yl)-N-phenylethane-1-sulfonamide]	516 fold	194 nM
O=S(=O)(CCN1CC[C@H](O)C1)N(Cc1ccc(-c2nnc(C(F)F)o2)cc1)c1ccccc1 [Compound 11800, (S)—N-(4-(5-(difluoromethyl)-1,3,4-oxadiazol-2-yl)benzyl)-2-(3-hydroxypyrrolidin-1-yl)-N-phenylethane-1-sulfonamide]	2252 fold	44.4 nM
O=S(=O)(CCN1CC[C@@H](O)C1)N(Cc1ccc(-c2nnc(C(F)F)o2)cc1)c1ccccc1 [Compound 11801, (R)—N-(4-(5-(difluoromethyl)-1,3,4-oxadiazol-2-yl)benzyl)-2-(3-hydroxypyrrolidin-1-yl)-N-phenylethane-1-sulfonamide]	2941 fold	34 nM
O=S(=O)(CCN1CCC[C@H]1CO)N(Cc1ccc(-c2nnc(C(F)F)o2)cc1)c1ccccc1 [Compound 11802, (S)—N-(4-(5-(difluoromethyl)-1,3,4-oxadiazol-2-yl)benzyl)-2-(2-(hydroxymethyl)pyrrolidin-1-yl)-N-phenylethane-1-sulfonamide]	2849 fold	35.1 nM
O=S(=O)(CCN1CCC[C@@H]1CO)N(Cc1ccc(-c2nnc(C(F)F)o2)cc1)c1ccccc1 [Compound 11803, (R)—N-(4-(5-(difluoromethyl)-1,3,4-oxadiazol-2-yl)benzyl)-2-(2-(hydroxymethyl)pyrrolidin-1-yl)-N-phenylethane-1-sulfonamide]	4587 fold	21.8 nM
O=S(=O)(CCN1CC[C@H](CO)C1)N(Cc1ccc(-c2nnc(C(F)F)o2)cc1)c1ccccc1 [Compound 11804, (S)—N-(4-(5-(difluoromethyl)-1,3,4-oxadiazol-2-yl)benzyl)-2-(3-(hydroxymethyl)pyrrolidin-1-yl)-N-phenylethane-1-sulfonamide]	3115 fold	32.1 nM
O=S(=O)(CCN1CC[C@@H](CO)C1)N(Cc1ccc(-c2nnc(C(F)F)o2)cc1)c1ccccc1 [Compound 11805, (R)—N-(4-(5-(difluoromethyl)-1,3,4-oxadiazol-2-yl)benzyl)-2-(3-(hydroxymethyl)pyrrolidin-1-yl)-N-phenylethane-1-sulfonamide]	3021 fold	33.1 nM
Cc1nccn1CCS(=O)(=O)N(Cc1ccc(-c2nnc(C(F)F)o2)cc1)c1ccccc1 [Compound 11806, N-(4-(5-(difluoromethyl)-1,3,4-oxadiazol-2-yl)benzyl)-2-(2-methyl-1H-imidazol-1-yl)-N-phenylethane-1-sulfonamide]	4000 fold	25 nM
Cc1cncn1CCS(=O)(=O)N(Cc1ccc(-c2nnc(C(F)F)o2)cc1)c1ccccc1 [Compound 11807, N-(4-(5-(difluoromethyl)-1,3,4-oxadiazol-2-yl)benzyl)-2-(5-methyl-1H-imidazol-1-yl)-N-phenylethane-1-sulfonamide]	1584 fold	63.1 nM
O=S(=O)(CCn1cnc(CO)c1)N(Cc1ccc(-c2nnc(C(F)F)o2)cc1)c1ccccc1 [Compound 11808, N-(4-(5-(difluoromethyl)-1,3,4-oxadiazol-2-yl)benzyl)-2-(4-(hydroxymethyl)-1H-imidazol-1-yl)-N-phenylethane-1-sulfonamide]	2881 fold	34.7 nM
